Results as given in US6518252B2, “Method of treating aquatic animals with an antimicrobial agent and chelating agent” (priority 2000, dated 2003).
Where “and” joins values, the source holds several entries; their conditions need not be identical. Equal values may be shown once.

Columns and labels:
[1] = test system: Staph. aureus; assay: Two-dimensional microtiter checkerboard, MIC and FIC of EDTA in 50 mM Tris and antibiotics; assay type: cell-based, Staphylococcus aureus
Protocol: (§1) Sabath, L. D, Antimicrob. Agents and Chem. 210-217. (1967) and Sparks et al., Vet. Res. Comm. 18, 241-249 (1994), incorporated herein by reference in their entireties. […] Then 0.05 ml of an 18-hour old culture of a test organism, containing 10^6 colony-forming units (CFU) ml, were added to each well. Controls for the culture and media were included in each plate. Plates were covered and incubated at 37° C. for 18-24 hours. […] To generate isobolograms, FICs of the two test solutions were plotted individually on the x-axis and y-axis to determine the effect of combining the two test solutions on bacterial growth. A line that curves away from the zero point and the coordinates indicated antagonism. […] Sabath, L. D, Antimicrob. Agents and Chem. 210-217. (1967), and incorporated herein by reference in their entireties. A numerical score or Fractional Inhibitory Concentration (FIC) index was determined.

[2] = test system: Ps. aeruginosa; assay: as above; assay type: cell-based, Pseudomonas aeruginosa
Protocol: as §1

[3] = test system: Ent. faecalis; assay: as above; assay type: cell-based, Enterococcus faecalis
Protocol: as §1

[4] = test system: Aeromonas caviae; assay: MIC and FIC of EDTA in 50 mM Tris and neomycin, Aeromonas isolated from ulcerated fish; assay type: cell-based; details: A. caviae
Protocol: (§2) Sabath, L. D, Antimicrob. Agents and Chem. 210-217. (1967) and Sparks et al., Vet. Res. Comm. 18, 241-249 (1994), incorporated herein by reference in their entireties.
(§3) Then 0.05 ml of an 18-hour old culture of a test organism, containing 10^6 colony-forming units (CFU) ml, were added to each well. Controls for the culture and media were included in each plate. Plates were covered and incubated at 37° C. for 18-24 hours.
(§4) To generate isobolograms, FICs of the two test solutions were plotted individually on the x-axis and y-axis to determine the effect of combining the two test solutions on bacterial growth. A line that curves away from the zero point and the coordinates indicated antagonism. […] Sabath, L. D, Antimicrob. Agents and Chem. 210-217. (1967), and incorporated herein by reference in their entireties.
(§5) A numerical score or Fractional Inhibitory Concentration (FIC) index was determined. The FIC index is equal to the sum of the values of FIC for the individual drugs: [formula]
(§6) An FIC index greater than 1.0 indicated an antagonistic interaction, an FIC index of 1.0 indicated addition, and an FIC index of less than or equal to 0.5 indicated synergism between the two test agents.

[5] = test system: Aeromonas sobria; assay: as above; assay type: cell-based; details: A. sobria
Protocol: as §2, §3, §4, §5, §6

[6] = test system: Bacillus sp.; assay: MIC of commercial chemical disinfectants or EDTA-Tris; assay type: cell-based; details: 1 x stock: EDTA-Tris 5 mM EDTA + 50 mM Tris-HCl, Glutracide 1:200, Magnaphen-100 1:400, BioSentry 904 1:256, Synergize 1:256, hydrogen peroxide 3%
[7] = test system: Staph. aureus; assay: MIC and FIC of chemical disinfectants and EDTA-Tris; assay type: cell-based, Staphylococcus aureus
Protocol: as §5, §6

[8] = test system: S. enteritidis; assay: as above; assay type: cell-based
Protocol: as §5, §6

[9] = test system: S. typhimurium DT104 (multiple antibiotic resistant strain); assay: as above; assay type: cell-based
Protocol: as §5, §6

[10] = test system: S. typhimurium 6578 (parent strain); assay: as above; assay type: cell-based
Protocol: as §5, §6

[11] = test system: S. typhimurium Avian (avian strain); assay: as above; assay type: cell-based
Protocol: as §5, §6

[12] = test system: P. mirabilis; assay: as above; assay type: cell-based, Proteus mirabilis
Protocol: as §5, §6

[13] = test system: S. typhimurium TRC1 (mar mutant); assay type: cell-based
Protocol: as §5, §6

[14] = test system: Gram-negative bacteria; assay: EDTA-Tris disinfectant combinations, summary; assay type: cell-based; details: most of the Gram-negative bacteria
Protocol: as §5, §6
Fractional inhibitory concentrations for EDTA-Tris disinfectant combinations (synergistic, additive, or antagonistic reactions) were determined for the test organisms. […]

[15] = test system: Gram-positive organisms; assay: EDTA-Tris disinfectant combinations, summary; assay type: cell-based
Protocol: as §5, §6

[16] = test system: Ps. aeruginosa; assay: MIC and FIC of chemical disinfectants and EDTA-Tris; assay type: cell-based, Pseudomonas aeruginosa
Protocol: as §5, §6

[17] = test system: E. coli; assay: MIC of commercial chemical disinfectants or EDTA-Tris; assay type: cell-based; details: 1 x stock solutions as in footnote of Table 5
[18] = test system: B subtilis; assay: FIC of chemical disinfectants and EDTA-Tris; assay type: cell-based; details: chemical disinfectant and EDTA-Tris
Protocol: as §5, §6

[19] = test system: E. coli V-1; assay: FIC of chemical disinfectants and EDTA-Tris; assay type: cell-based; details: chemical disinfectant and EDTA-Tris
Protocol: as §5, §6

[20] = test system: E. coli Av; assay: FIC of chemical disinfectants and EDTA-Tris; assay type: cell-based; details: chemical disinfectant and EDTA-Tris
Protocol: as §5, §6

[21] = test system: Enterococcus faecalis; assay: Antibiotic resistance profile; assay type: cell-based; details: Enterococcus faecalis test strain; further: key: R = resistant; I = intermediate; S = sensitive
[22] = test system: Pseudomonas aeruginosa; assay: Antibiotic resistance profile; assay type: cell-based; details: Pseudomonas aeruginosa test strain; further: key: R = resistant; I = intermediate; S = sensitive
[23] = test system: Staphylococcus aureus; assay: Antibiotic resistance profile; assay type: cell-based; details: Staphylococcus aureus test strain; further: key: R = resistant; I = intermediate; S = sensitive
[24] = test system: Pseudomonas aeruginosa; assay: Minimal Bactericidal Concentration (MBC), EDTA and neomycin in 50 mM Tris; assay type: cell-based
[25] = test system: Staphylococcus aureus; assay: as above; assay type: cell-based
[26] = test system: Enterococcus faecalis; assay: as above; assay type: cell-based
[27] = test system: Aeromonas hydrophila; assay: MIC and FIC of EDTA in 50 mM Tris and neomycin, Aeromonas isolated from ulcerated fish; assay type: cell-based; details: A. hydrophila
Protocol: as §2, §3, §4, §5, §6

[28] = 1 x stock solutions as in footnote of Table 5
[29] = chemical disinfectant and EDTA-Tris
[30] = 1 x stock solutions as in footnote of Table 6

O=C(O)CN(CCN(CC(=O)O)CC(=O)O)CC(=O)O [EDTA, ethylenediaminetetracetic acid]
MIC, individually administered EDTA ([1]; Staph. aureus, EDTA in 50 mM Tris, alone): 1000 µM
MIC ([1]; Staphylococcus aureus, read-out: MIC, individually administered EDTA): 1000 µM
MIC, individually administered EDTA ([2]; Ps. aeruginosa, EDTA in 50 mM Tris, alone): 1250 µM
MIC ([2]; Pseudomonas aeruginosa, read-out: MIC, individually administered EDTA): 1250 µM
MIC, individually administered EDTA ([3]; Ent. faecalis, EDTA in 50 mM Tris, alone): 15630 µM
MIC ([3]; Enterococcus faecalis, read-out: MIC, individually administered EDTA): 15600 µM
MIC, EDTA in 50 mM Tris alone [4]: <0.49
MIC, EDTA in 50 mM Tris alone [5]: 15.6

OO [Hydrogen peroxide]
MIC [6]: 0.05 dilution of stock solution
MIC [7, 28]: 0.02 dilution of stock solution
FIC [7, 29]: 1.48
Type of reaction (FIC class) [7, 29]: B (Antagonistic reaction (FIC > 1.0))
MIC [8, 30]: 0.005 dilution of stock solution
FIC [8, 29]: 0.38
Type of reaction (FIC class) [8, 29]: C (Synergistic reaction (FIC < 0.5))
MIC [9, 30]: 0.005 dilution of stock solution
FIC [9, 29]: 0.75
Type of reaction (FIC class) [9, 29]: C (Additive reaction (FIC :> 0.5 to < 1.0))
MIC [10, 30]: 0.005 dilution of stock solution
FIC [10, 29]: 0.5
Type of reaction (FIC class) [10, 29]: D (Synergistic reaction (FIC <: 0.5))
MIC [11, 30]: 0.005 dilution of stock solution
FIC [11, 29]: 0.63
Type of reaction (FIC class) [11, 29]: C (Additive reaction (FIC :> 0.5 to < 1.0))
MIC [12, 28]: 0.19 dilution of stock solution
FIC [12, 29]: 0.37
Type of reaction (FIC class) [12, 29]: C (Synergistic reaction (FIC < 0.5))
MIC [13, 30]: 0.005 dilution of stock solution
FIC [13, 29]: 0.5
Type of reaction (FIC class) [13, 29]: D (Synergistic reaction (FIC <: 0.5))
Effect of EDTA-Tris on the antimicrobial effect of the disinfectant [14]: potentiated (synergistic or additive)
Effect of EDTA-Tris on the antimicrobial effect of the disinfectant [15]: did not react uniformly
MIC [16, 28]: 0.09 dilution of stock solution
FIC [16, 29]: 0.37
Type of reaction (FIC class) [16, 29]: C (Synergistic reaction (FIC < 0.5))
MIC [17]: 0.12 dilution of stock solution
FIC [18]: 1.0
Type of reaction (FIC class) [18]: B (Additive reaction (FIC > 0.5 to < 1.0))
FIC [19]: 0.53
Type of reaction (FIC class) [19]: C (Additive reaction (FIC > 0.5 to < 1.0))
FIC [20]: 0.50
Type of reaction (FIC class) [20]: A (Synergistic reaction (FIC ˜ 0.5))

CN(C)[C@@H]1C(O)=C(C(N)=O)C(=O)[C@@]2(O)C(O)=C3C(=O)c4c(O)cccc4[C@@](C)(O)[C@H]3[C@H](O)[C@@H]12 [Oxytetracycline, oxytetracycline, reference compound]
MIC, antibiotic individually administered ([1]; Staph. aureus, alone): 0.1 µg/mL
MIC, antibiotic individually administered ([2]; Ps. aeruginosa, alone): 3 µg/mL
MIC, antibiotic individually administered ([3]; Ent. faecalis, alone): 50 µg/mL

CN[C@H](CC(C)C)C(=O)N[C@H]1C(=O)N[C@@H](CC(N)=O)C(=O)N[C@H]2C(=O)N[C@H]3C(=O)N[C@H](C(=O)N[C@H](C(=O)O)c4cc(O)cc(O)c4-c4cc3ccc4O)[C@H](O)c3ccc(c(Cl)c3)Oc3cc2cc(c3O[C@@H]2O[C@H](CO)[C@@H](O)[C@H](O)[C@H]2O[C@H]2C[C@](C)(N)[C@H](O)[C@H](C)O2)Oc2ccc(cc2Cl)[C@H]1O [Va, vancomycin]
Antibiotic resistance profile [21]: R
Antibiotic resistance profile [22]: R
Antibiotic resistance profile [23]: S

gentamicin [Gm]
Antibiotic resistance profile [21]: R
Antibiotic resistance profile [22]: I
Antibiotic resistance profile [23]: S

neomycin [reference compound]
MIC, antibiotic individually administered ([1]; Staph. aureus, alone): 3130 µg/mL
Decrease of MBC value when combined compared to individually administered ([24]; Ps. aeruginosa, EDTA and neomycin combined): 99.2%
MBC, neomycin co-administered ([24]; Pseudomonas aeruginosa, co-administered with EDTA in 50 mM Tris): 40 µg/mL
MBC, neomycin individually administered ([24]; Pseudomonas aeruginosa, in 50 mM Tris): 5000 µg/mL
Decrease of MBC value when combined compared to individually administered ([25]; Staph. aureus, EDTA and neomycin combined): about 50% and 50%
MBC, neomycin co-administered ([25]; Staphylococcus aureus, co-administered with EDTA in 50 mM Tris): 1560 µg/mL
MBC, neomycin individually administered ([25]; Staphylococcus aureus, in 50 mM Tris): 3130 µg/mL
Antibiotic resistance profile [21]: R
MIC, antibiotic individually administered ([2]; Ps. aeruginosa, alone): 1000 µg/mL
MIC, antibiotic individually administered ([3]; Ent. faecalis, alone): 3130 µg/mL
Antibiotic resistance profile [22]: R
Decrease of MBC value when combined compared to individually administered ([26]; Ent. faecalis, EDTA and neomycin combined): 75%
MBC, neomycin co-administered ([26]; Enterococcus faecalis, co-administered with EDTA in 50 mM Tris): 6250 µg/mL
MBC, neomycin individually administered ([26]; Enterococcus faecalis, in 50 mM Tris): 25000 µg/mL
MIC, neomycin alone [4]: 12.5 µg/mL
MIC, neomycin alone [5]: 12.5 µg/mL
MIC, neomycin alone [27]: 200 µg/mL
Antibiotic resistance profile [23]: R
